pEC50: −log10 of the molar value.
What was measured:
[1] = Half life in Sprague-Dawley rat at 1 mg/kg, iv; type: ADME, organism-based; parameters: dose 1 mg/kg, route intravenous; details: in vivo
Hepatitis C virus [2] = assay: Antiviral activity against HCV genotype 1a H77 infected in human HuH7 cells assessed as inhibition of viral RNA replication after 3 days by renilla luciferase reporter gene assay; type: functional, organism-based, Hepacivirus hominis; details: genotype 1a H77, Huh-7, 72 h
Rattus norvegicus = species: Rattus norvegicus; assay: Toxicity in Sprague-Dawley rat assessed as adverse effects by 14 day toxicology study; type: organism-based; details: in vivo, 336 h
[3] = Metabolic stability in human liver microsomes assessed as hepatic extraction at 3 uM after 60 mins by LC/MS/MS analysis; type: ADME; details: read-out: ERH
[4] = Clearance in cynomolgus monkey at 0.5 mg/kg, iv; type: ADME, organism-based, Macaca fascicularis; parameters: dose 0.5 mg/kg, route intravenous; details: in vivo
Hepatitis C virus [5] = assay: Ratio of EC50 for HCV genotype 1a H77 infected in human HuH7 cells in presence of 10% BSA to EC50 for HCV genotype 1a H77 infected in human HuH7 cells; type: functional, Hepacivirus hominis, Huh-7
Hepatitis C virus [6] = assay: Antiviral activity against HCV genotype 1b Con1 infected in human HuH7 cells assessed as inhibition of viral RNA replication after 3 days by renilla luciferase reporter gene assay in presence of 10% BSA; type: functional, organism-based, Hepacivirus hominis; details: isolate Con1, Huh-7, 72 h
[7] = Tmax in fasted healthy human at 30 mg/kg, po; type: ADME, organism-based; parameters: dose 30 mg/kg, route oral; details: in vivo
[8] = Mean residence time in Sprague-Dawley rat at 1 mg/kg, iv; type: ADME, organism-based; parameters: dose 1 mg/kg, route intravenous; details: in vivo
[9] = Plasma concentration in fasted healthy human at 100 mg/kg, po at 24 hrs; type: ADME, organism-based; parameters: dose 100 mg/kg, route oral
[10] = Volume of distribution at steady state in beagle dog at 0.2 mg/kg, iv; type: ADME, organism-based, Canis lupus familiaris; parameters: dose 0.2 mg/kg, route intravenous; details: in vivo, read-out: Vdss
[11] = Oral bioavailability in beagle dog at 0.5 mg/kg; type: ADME, organism-based, Canis lupus familiaris; details: in vivo
[12] = Metabolic stability in cynomolgus monkey liver microsomes assessed as hepatic extraction at 3 uM after 60 mins by LC/MS/MS analysis; type: ADME, Macaca fascicularis, Microsome; details: read-out: ERH
Hepatitis C virus [13] = assay: Ratio of EC50 for HCV genotype 1b Con1 infected in human HuH7 cells in presence of 10% BSA to EC50 for HCV genotype 1b Con1 infected in human HuH7 cells; type: functional, Hepacivirus hominis, isolate Con1, Huh-7
[14] = Oral bioavailability in cynomolgus monkey at 1 mg/kg; type: ADME, organism-based, Macaca fascicularis; details: in vivo
[15] = AUC (infinity) in fasted healthy human at 100 mg/kg, po; type: ADME, organism-based; parameters: time infinity, dose 100 mg/kg, route oral; details: plasma
[16] = Mean residence time in cynomolgus monkey at 0.5 mg/kg, iv; type: ADME, organism-based, Macaca fascicularis; parameters: dose 0.5 mg/kg, route intravenous; details: in vivo
[17] = AUC (infinity) in fasted healthy human at 60 mg/kg, po; type: ADME, organism-based; parameters: time infinity, dose 60 mg/kg, route oral; details: plasma
[18] = Tmax in fasted healthy human at 100 mg/kg, po; type: ADME, organism-based; parameters: dose 100 mg/kg, route oral; details: in vivo
[19] = AUClast in fasted healthy human at 30 mg/kg, po; type: ADME, organism-based; parameters: time 0 - last, dose 30 mg/kg, route oral; details: plasma
[20] = Plasma concentration in fasted healthy human at 3 mg/kg, po at 24 hrs; type: ADME, organism-based; parameters: dose 3 mg/kg, route oral
Hepatitis C virus [21] = assay: Antiviral activity against HCV genotype 1b Con1 infected in human HuH7 cells assessed as inhibition of viral RNA replication after 3 days by renilla luciferase reporter gene assay; type: functional, organism-based, Hepacivirus hominis; details: isolate Con1, Huh-7, 72 h
[22] = Cmax in fasted healthy human at 10 mg/kg, po; type: ADME, organism-based; parameters: dose 10 mg/kg, route oral; details: in vivo
[23] = Half life in fasted healthy human at 30 mg/kg, po; type: ADME, organism-based; parameters: dose 30 mg/kg, route oral; details: in vivo
[24] = AUC (infinity) in fasted healthy human at 10 mg/kg, po; type: ADME, organism-based; parameters: time infinity, dose 10 mg/kg, route oral; details: plasma
[25] = Clearance in beagle dog at 0.2 mg/kg, iv; type: ADME, organism-based, Canis lupus familiaris; parameters: dose 0.2 mg/kg, route intravenous; details: in vivo
[26] = Plasma concentration in fasted healthy human at 10 mg/kg, po at 24 hrs; type: ADME, organism-based; parameters: dose 10 mg/kg, route oral
Hepatitis C virus [27] = assay: Ratio of EC50 for HCV genotype 1a H77 infected in human HuH7 cells in presence of human serum to EC50 for HCV genotype 1a H77 infected in human HuH7 cells; type: functional, Hepacivirus hominis, Huh-7
Canis familiaris = species: Canis familiaris; assay: Toxicity in beagle dog assessed as adverse effects by 14 day toxicology study; type: organism-based, Canis lupus familiaris; details: in vivo, 336 h
Hepatitis C virus [28] = assay: Ratio of EC50 for HCV genotype 1b Con1 infected in human HuH7 cells in presence of human serum to EC50 for HCV genotype 1b Con1 infected in human HuH7 cells; type: functional, Hepacivirus hominis, isolate Con1, Huh-7
Hepatitis C virus [29] = assay: Antiviral activity against HCV genotype 1a H77 infected in human HuH7 cells assessed as inhibition of viral RNA replication after 3 days by renilla luciferase reporter gene assay in presence of human serum; type: functional, organism-based, Hepacivirus hominis; details: genotype 1a H77, Huh-7, 72 h
[30] = Ratio of EC50 for HCV genotype 1a H77 infected in human HuH7 cells in presence of 10% BSA to plasma concentration in fasted healthy human at 100 mg, po at 24 hrs
[31] = Half life in fasted healthy human at 100 mg/kg, po; type: ADME, organism-based; parameters: dose 100 mg/kg, route oral; details: in vivo

With `COC(=O)N[C@H](C(=O)N1CC2(CC2)C[C@H]1c1nc(-c2ccc3c(c2)C(F)(F)c2cc(-c4ccc5[nH]c([C@@H]6[C@H]7CC[C@H](C7)N6C(=O)[C@@H](NC(=O)OC)C(C)C)nc5c4)ccc2-3)c[nH]1)C(C)C` the half-life [1] was 4.67 h, the pEC50 (Hepatitis C virus [2]) was 10.51 and the Activity (Rattus norvegicus) was “Non-toxic”. For the same compound, the hepatic extraction ratio at 1 h, 3 µM [3] was < 0.127, the clearance [4] was 2.83 mL/min/kg and the “Ratio EC50” value (Hepatitis C virus [5]) was 6.7. For the same compound, the pEC50 (Hepatitis C virus [6]) was 10.57, the Tmax [7] was 5.75 h and the MRT [8] was 6.19 h. The concentration at 24 h [9] was 98.8 nM, the Vd [10] was 1.19 L/kg and the bioavailability [11] was 53%. The hepatic extraction ratio at 1 h, 3 µM [12] was < 0.127, the “Ratio EC50” value (Hepatitis C virus [13]) was 6.7 and the bioavailability [14] was 41.1%. The AUC(0-inf) [15] was 8.66 µM·h, the MRT [16] was 12.9 h and the AUC(0-inf) [17] was 5.3 µM·h. For the same compound, the Tmax [18] was 5.5 h, the AUC(0-t) [19] was 2.24 µM·h and the concentration at 24 h [20] was 2.45 nM. For the same compound, the pEC50 (Hepatitis C virus [21]) was 11.40, the Cmax [22] was 21.3 nM and the half-life [23] was 37.2 h. For the same compound, the AUC(0-inf) [24] was 0.695 µM·h, the clearance [25] was 2.17 mL/min/kg and the concentration at 24 h [26] was 7.94 nM. For the same compound, the “Ratio EC50” value (Hepatitis C virus [27]) was 6.7, the Activity (Canis familiaris) was “Non-toxic” and the “Ratio EC50” value (Hepatitis C virus [28]) was 6.7. It also gave a pEC50 (Hepatitis C virus [29]) of 9.68, a Ratio [30] of 470 and a half-life [31] of 39.5 h.
